Patent publication US20260042764A1, “COMPOSITIONS AND METHODS FOR INHIBITION OF KRAS” (TheRas, Inc., priority 2022, published 2026)

Columns and labels:
GP2d cells (KRAS G12D) = test: Cell-based pERK HTRF assay in GP2d cell (Biological Example 2); details: GP2d, GP2d (KRAS G12D) cells
In short: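 HTRF read-out of pERK (excitation 320 nm, emission 615 nm) after lysates sat 4–24 h at room temperature with Eu cryptate and d2 antibodies.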

[1] = target: T1, Avi-KRAS G12D (2-169) GTP/RAF1 RBD-3xFLAG (51-131) (Homo sapiens, UniProt P01116, G12D); test: Raf1-KRAS G12D-GTP disruption HTRF assay (Biological Example 3); format: binding; details: KRAS G12D, GTP-loaded
T1 construct: Avi-KRAS G12D (2-169)
T1 sequence (P01116 2-169 isoform P01116-2 G12D): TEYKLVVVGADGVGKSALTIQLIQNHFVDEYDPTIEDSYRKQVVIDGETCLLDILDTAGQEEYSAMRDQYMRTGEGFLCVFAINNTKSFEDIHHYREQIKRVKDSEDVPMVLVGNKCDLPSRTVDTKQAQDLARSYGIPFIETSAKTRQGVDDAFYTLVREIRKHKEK
In short: (§1)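 Each KRAS-GTP/RAF1 RBD complex at 50 nM, with 75 nM 3xFLAG-RAF1 RBD (51-131)-Avi, in 50 mM Tris pH 7.5, 100 mM NaCl, 5 mM MgCl2, 0.1% BSA, 0.01% Tween 20, 10% DMSO. Compounds titrated from 30 μM, 10-point 3x series; 1 h at room temperature with shaking. HTRF read, activity as percent of DMSO.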

[2] = target: T2, Avi-KRAS G12C (2-169) GTP/RAF1 RBD-3xFLAG (51-131) (Homo sapiens, UniProt P01116, G12C); test: Raf1-KRAS G12C-GTP disruption HTRF assay (Biological Example 3); format: binding; details: KRAS G12C, GTP-loaded
T2 construct: Avi-KRAS G12C (2-169)
T2 sequence (P01116 2-169 isoform P01116-2 G12C): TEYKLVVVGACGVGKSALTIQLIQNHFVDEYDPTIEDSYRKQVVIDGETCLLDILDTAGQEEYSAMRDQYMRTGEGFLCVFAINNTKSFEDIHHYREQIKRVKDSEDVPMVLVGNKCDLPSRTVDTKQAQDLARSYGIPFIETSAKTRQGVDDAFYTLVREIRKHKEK
In short: as §1

[3] = target: T3, Avi-KRAS G12V (2-169) GTP/RAF1 RBD-3xFLAG (51-131) (Homo sapiens, UniProt P01116, G12V); test: Raf1-KRAS G12V-GTP disruption HTRF assay (Biological Example 3); format: binding; details: KRAS G12V, GTP-loaded
T3 construct: Avi-KRAS G12V (2-169)
T3 sequence (P01116 2-169 isoform P01116-2 G12V): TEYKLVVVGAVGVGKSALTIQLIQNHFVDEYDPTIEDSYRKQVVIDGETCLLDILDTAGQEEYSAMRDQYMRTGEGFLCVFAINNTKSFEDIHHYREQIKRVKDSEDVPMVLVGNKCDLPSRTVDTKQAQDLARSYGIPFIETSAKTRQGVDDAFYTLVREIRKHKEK
In short: as §1

[4] = target: T4, Avi-KRAS WT (2-169) GTP/RAF1 RBD-3xFLAG (51-131) (Homo sapiens, UniProt P01116); test: Raf1-KRAS WT-GTP disruption HTRF assay (Biological Example 3); format: binding; details: KRAS WT, GTP-loaded
T4 construct: Avi-KRAS WT (2-169)
T4 sequence (P01116 2-169 isoform P01116-2): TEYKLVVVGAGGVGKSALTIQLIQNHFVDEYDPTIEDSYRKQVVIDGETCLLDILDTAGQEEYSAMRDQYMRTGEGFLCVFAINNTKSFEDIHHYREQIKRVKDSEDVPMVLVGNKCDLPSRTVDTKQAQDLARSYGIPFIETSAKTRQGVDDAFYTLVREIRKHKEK
In short: as §1

SW620 cells (KRAS G12V) = test: Cell-based pERK HTRF assay in SW620 cell (Biological Example 4); details: Homo sapiens, SW-620, SW620 (KRAS G12V) cells
In short: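 SW620 (KRAS G12V) cells seeded at 3×10^4/well in RPMI, 10% FBS, then treated next day for 4 h with a 9-point half-log series from 1 μM top (0.25% DMSO). Lysates analyzed for pERK by HTRF (Eu cryptate/d2 antibodies, 4–24 h at room temperature), excitation 320 nm, emission 615 nm.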

IC50 (GP2d cells (KRAS G12D))	IC50 [1]	IC50 [2]	IC50 [3]	IC50 [4]	IC50 (SW620 cells (KRAS G12V))	SMILES
< 100 nM	≤ 100 nM	≤ 100 nM	≤ 100 nM	≤ 100 nM	< 100 nM	CCN(c1nc(OC[C@@]23CCCN2C[C@H](F)C3)nc2c(F)c(-c3ccc(F)c4sc(N)c(C#N)c34)c(C(F)(F)F)cc12)[C@H]1C[C@H]2C[C@@H](C)C(=O)N2C1 (atropisomer, axis not shown) [Compound 866]
< 100 nM	100 to 1000 nM	100 to 1000 nM	100 to 1000 nM	1000 to 10000 nM	< 100 nM	N#Cc1c(N)sc2c(F)ccc(-c3c(C(F)(F)F)cc4c(N(CCF)[C@H]5CCN(C(=O)[C@@H]6CC6(F)F)C5)nc(OC[C@@]56CCCN5C[C@H](F)C6)nc4c3F)c12 (atropisomer, axis not shown) [Compound 843]
< 100 nM	100 to 1000 nM	100 to 1000 nM	100 to 1000 nM	100 to 1000 nM	< 100 nM	CCN(c1nc(OC[C@@]23CCCN2C[C@H](F)C3)nc2c(F)c(-c3ccc(F)c4sc(N)c(C#N)c34)c(C(F)(F)F)cc12)[C@H]1C[C@H](COC)N(C(=O)N2CC(OC)C2)C1 (atropisomer, axis not shown) [Compound 839]
< 100 nM	100 to 1000 nM	100 to 1000 nM	100 to 1000 nM	100 to 1000 nM	< 100 nM	CN(Cc1cocn1)c1nc(OC[C@@]23CCCN2C[C@H](F)C3)nc2c(F)c(-c3ccc(F)c4sc(N)c(C#N)c34)c(C(F)(F)F)cc12 (atropisomer, axis not shown) [Compound 855]
100 to 1000 nM	> 10000 nM	> 10000 nM	> 10000 nM	> 10000 nM	100 to 1000 nM	CN(Cc1ccccc1)c1nc(OC[C@@]23CCCN2C[C@H](F)C3)nc2c(F)c(-c3ccc(F)c4sc(N)c(C#N)c34)c(C(F)(F)F)cc12 (atropisomer, axis not shown) [Compound 890]
< 100 nM	1000 to 10000 nM	1000 to 10000 nM	1000 to 10000 nM	1000 to 10000 nM	< 100 nM	CCN(c1nc(OC[C@@]23CCCN2C[C@H](F)C3)nc2c(F)c(-c3ccc(F)c4sc(N)c(C#N)c34)c(C(F)(F)F)cc12)[C@H]1CCN(C(=O)N2CC(F)C2)[C@H]1C (atropisomer, axis not shown) [Compound 818]
< 100 nM	100 to 1000 nM	100 to 1000 nM	100 to 1000 nM	100 to 1000 nM	< 100 nM	CCN(c1nc(OC[C@@]23CCCN2C[C@H](F)C3)nc2c(F)c(-c3ccc(F)c4sc(N)c(C#N)c34)c(C(F)(F)F)cc12)[C@H]1C[C@H]2CN(CC(F)(F)F)C(=O)N2C1 (atropisomer, axis not shown) [Compound 951]

Continued, molecule first:

SMILES	IC50 (GP2d cells (KRAS G12D))	IC50 [1]	IC50 [2]	IC50 [3]	IC50 [4]	IC50 (SW620 cells (KRAS G12V))
CCN(c1nc(OC[C@@]23CCCN2C[C@H](F)C3)nc2c(F)c(-c3ccc(F)c4sc(N)c(C#N)c34)c(C(F)(F)F)cc12)[C@H]1C[C@H](COC)N(C(=O)OC2COC2)C1 (atropisomer, axis not shown) [Compound 837]	< 100 nM	100 to 1000 nM	100 to 1000 nM	100 to 1000 nM	100 to 1000 nM	< 100 nM
CCN(c1nc(OC[C@@]23CCCN2C[C@H](F)C3)nc2c(F)c(-c3ccc(F)c4sc(N)c(C#N)c34)c(C(F)(F)F)cc12)[C@H]1CCN(C(=O)O[C@H]2CO[C@H]3OCC[C@H]32)C1 (atropisomer, axis not shown) [Compound 816]	< 100 nM	100 to 1000 nM	≤ 100 nM	100 to 1000 nM	100 to 1000 nM	< 100 nM
CCN(c1nc(OC[C@@]23CCCN2C[C@H](F)C3)nc2c(F)c(-c3ccc(F)c4sc(N)c(C#N)c34)c(C(F)(F)F)cc12)[C@H]1CCN(C(=O)c2ncc(Cl)s2)C1 (atropisomer, axis not shown) [Compound 939]	< 100 nM	100 to 1000 nM	1000 to 10000 nM	1000 to 10000 nM	1000 to 10000 nM	< 100 nM
CCN(c1nc(OC[C@@]23CCCN2C[C@H](F)C3)nc2c(F)c(-c3ccc(F)c4sc(N)c(C#N)c34)c(C(F)(F)F)cc12)[C@H]1CCN(C(=O)O[C@H](C)C(F)(F)F)C1 (atropisomer, axis not shown) [Compound 850]	< 100 nM	100 to 1000 nM	100 to 1000 nM	1000 to 10000 nM	1000 to 10000 nM	< 100 nM
CCN(c1nc(OC[C@@]23CCCN2C[C@H](F)C3)nc2c(F)c(-c3ccc(F)c4sc(N)c(C#N)c34)c(C(F)(F)F)cc12)[C@H]1CC(=O)N2CCC[C@H]12 (atropisomer, axis not shown) [Compound 880]	< 100 nM	100 to 1000 nM	≤ 100 nM	≤ 100 nM	100 to 1000 nM	< 100 nM
CN(Cc1cnco1)c1nc(OC[C@@]23CCCN2C[C@H](F)C3)nc2c(F)c(-c3ccc(F)c4sc(N)c(C#N)c34)c(C(F)(F)F)cc12 [Compound 908]	< 100 nM	100 to 1000 nM	1000 to 10000 nM	1000 to 10000 nM	1000 to 10000 nM	< 100 nM
CCN(c1nc(OC[C@@]23CCCN2C[C@H](F)C3)nc2c(F)c(-c3ccc(F)c4sc(N)c(C#N)c34)c(C(F)(F)F)cc12)[C@H]1C[C@H]2CN(C3COC3)C(=O)N2C1 (atropisomer, axis not shown) [Compound 958]	< 100 nM	100 to 1000 nM	100 to 1000 nM	100 to 1000 nM	100 to 1000 nM	< 100 nM
[2H][C@]1(N(CC)c2nc(OC[C@@]34CCCN3C[C@H](F)C4)nc3c(F)c(-c4ccc(F)c5sc(N)c(C#N)c45)c(C(F)(F)F)cc23)CCN(C(=O)N(C)C)C1 (atropisomer, axis not shown) [Compound 859]	< 100 nM	100 to 1000 nM	100 to 1000 nM	100 to 1000 nM	100 to 1000 nM	< 100 nM
CN(CC1COC1)c1nc(OC[C@@]23CCCN2C[C@H](F)C3)nc2c(F)c(-c3ccc(F)c4sc(N)c(C#N)c34)c(C(F)(F)F)cc12 (atropisomer, axis not shown) [Compound 963]	> 1000 nM	1000 to 10000 nM	> 10000 nM	> 10000 nM	1000 to 10000 nM	> 1000 nM
CCN(c1nc(OC[C@@]23CCCN2C[C@H](F)C3)nc2c(F)c(-c3ccc(F)c4sc(N)c(C#N)c34)c(C(F)(F)F)cc12)[C@H]1CCN(C(=O)C2COC2)[C@@H]1C (atropisomer, axis not shown) [Compound 833]	< 100 nM	≤ 100 nM	100 to 1000 nM	100 to 1000 nM	100 to 1000 nM	< 100 nM
CCN(c1nc(OC[C@@]23CCCN2C[C@H](F)C3)nc2c(F)c(-c3ccc(F)c4sc(N)c(C#N)c34)c(C(F)(F)F)cc12)[C@H]1C[C@@H]2CCN(C)C(=O)N2C1 (atropisomer, axis not shown) [Compound 667]	< 100 nM	100 to 1000 nM	100 to 1000 nM	100 to 1000 nM	100 to 1000 nM	< 100 nM
CCN(Cc1cccnc1)c1nc(OC[C@@]23CCCN2C[C@H](F)C3)nc2c(F)c(-c3ccc(F)c4sc(N)c(C#N)c34)c(C(F)(F)F)cc12 (atropisomer, axis not shown) [Compound 862]	< 100 nM	1000 to 10000 nM	1000 to 10000 nM	1000 to 10000 nM	1000 to 10000 nM	< 100 nM
CN(Cc1ccncc1)c1nc(OC[C@@]23CCCN2C[C@H](F)C3)nc2c(F)c(-c3ccc(F)c4sc(N)c(C#N)c34)c(C(F)(F)F)cc12 (atropisomer, axis not shown) [Compound 867]	< 100 nM	1000 to 10000 nM	1000 to 10000 nM	1000 to 10000 nM	1000 to 10000 nM	< 100 nM
N#Cc1c(N)sc2c(F)ccc(-c3c(C(F)(F)F)cc4c(N5Cc6ccncc6C5)nc(OC[C@@]56CCCN5C[C@H](F)C6)nc4c3F)c12 [Compound 946]	< 100 nM	1000 to 10000 nM	1000 to 10000 nM	1000 to 10000 nM	1000 to 10000 nM	100 to 1000 nM
N#Cc1c(N)sc2c(F)ccc(-c3c(C(F)(F)F)cc4c(N5CCc6ccncc6C5)nc(OC[C@@]56CCCN5C[C@H](F)C6)nc4c3F)c12 [Compound 942]	< 100 nM	> 10000 nM	> 10000 nM	> 10000 nM	> 10000 nM	100 to 1000 nM
